Results published in patent publication US20240011038A1, “CYTARABINE-MODIFIED miRNA FOR TREATING CANCER” (Curamir Therapeutics, Inc., priority 2022, published 2024).

Legend:
Assay type in all cases: cell-based
Wee1 gene mRNA = assay: Inhibition of Wee1 expression by modified miR-15a (qRT-PCR); details: MV-4-11 cells, lipofection, 15 nM miRNA, 24 h post-transfection, normalized to GAPDH, vs negative control miRNA; FIG. 7
Method: Wee1 is an important cell cycle regulator and a potential target for AML therapy. Wee1 is a direct target of miR-15a with two miR-15a binding sites in the 3′ UTR of Wee1.
For transfection with a vehicle, twenty-four hours before transfection, cells were plated in 6 well plates at 1×10^5 cells per well. Cells were transfected with negative control miRNA (Thermo Fisher Scientific), 5-FU miR-15a, or various versions of the ara-C modified miR-15a mimic, using Lipofectamine™ 2000 (Thermo Fisher Scientific) as directed by the manufacturer. MV-4-11 cells were transfected with 15 nM of miRNA. Twenty-four hours post-transfection, RNA was isolated from cells using TRIzol™ (Thermo Fisher Scientific) reagent following the manufacturer's protocol. Wee1 expression was measured using qRT-PCR and normalized to GAPDH expression and calculated by the double delta threshold cycle (ΔΔCt) method.

[1] = test system: REH acute lymphocytic leukemia cells; assay: Cell viability of REH ALL cells exposed to modified miRNA mimics (WST-1); details: vehicle-free transfection, 10, 5, 0.5 nM miRNA, day 6, FIG. 5
Method: (§1) MV-4-11 (American Type Culture Collection; “ATCC”) AML cells were maintained in Iscove's Modified Dulbecco's Medium (IMDM) (Thermo Fisher Scientific) supplemented with 10% fetal bovine serum (“FBS”; VWR). REH ALL cells (ATCC) were maintained in RPMI-1640 Medium (Thermo Fisher Scientific) supplemented with 10% FBS.
(§2) For transfection with a vehicle, twenty-four hours before transfection, cells were plated in 6 well plates at 1×10^5 cells per well. Cells were transfected with negative control miRNA (Thermo Fisher Scientific), 5-FU miR-15a, or various versions of the ara-C modified miR-15a mimic, using Lipofectamine™ 2000 (Thermo Fisher Scientific) as directed by the manufacturer. MV-4-11 cells were transfected with 15 nM of miRNA and REH cells were transfected with 25 nM of miRNA. Twenty-four hours post-transfection, cells were replated at 2000 cells per well in 96 well plates. […]
(§3) Cell numbers were measured on days 1, 3, and 6 post transfection for cells transfected with Lipofectamine 2000 and on day 6 post transfection for vehicle free transfection, using WST-1 dye (Roche). Briefly, cells were incubated with 10 μl of WST-1 dye per 100 μl of media for 1 hour (REH) or 2 hours (MV-4-11) at 37° C. and absorbance was read at 450 nm and 630 nm. The optical density (“OD”) was calculated by subtracting the absorbance at 630 nm from that at 450 nm. […]

[2] = test system: MV-4-11 acute myeloid leukemia cells; assay: Cell viability of MV-4-11 AML cells exposed to modified miRNA mimics (WST-1); details: MV-4-11 cells, vehicle-free transfection, dosage of 5 nM, 6 days; FIG. 3
Method: as §1, §2, §3

5-FU miR-15a: miR-15a mimic with 5-fluorouracil in the guide strand, unmodified passenger strand (FIG. 1F; SEQ ID NO: 1/2) (guide UAGCAGCACAUAAUGGUUUGUG; sense CAGGCCAUAUUGUGCUGCCUCA; 5-fluorouracil in guide strand; misc_feature 1..22 miR-15a guide strand; modified_base 1 OTHER; uracil or 5-fluorouracil; misc_feature 4 cytidine or cytosine arabinoside; misc_feature 7 cytidine or cytosine arabinoside; modified_base 11 OTHER; modified_base 14 OTHER; modified_base 17..19 OTHER; modified_base 21 OTHER; misc_fea; misc_feature 1..22 miR-15a passenger strand; misc_feature 1 cytidine or cytosine arabinoside; misc_feature 5..6 cytidine or cytosine arabinoside; misc_feature 15 cytidine or cytosine arabinoside;)
Wee1 gene mRNA expression (relative quantity, qRT-PCR) (Wee1 gene mRNA): able to significantly suppress Wee1 gene mRNA expression
inhibition of cell viability (percent cell viability) [1]: more effective than ara-C miR-15a
cell killing [2]: killed all cells in 6 days
